Key:
[1] = tested on: C57B/L6 mice injected with Bleomycin sulfate (inducer of pulmonary fibrosis); assay: Pulmonary function by unrestrained whole body plethysmography in Bleomycin sulfate mice; type: in vivo; conditions: compared to oil group; for accumulated volume (AV): p<0.01; for expiratory time (Te) / relaxation time (RT): p<0.05
Protocol: 24 C57B/L6 mice (age: four weeks) were separated into four groups (6 mice in each group). Each group was respectively treated under the following conditions to conduct follow-up experiments: • (1) Control group (mice without pulmonary fibrosis; i.e., normal mice): 50 μl of PBS was administrated to each mouse by intratracheal injection, and then the mice were fed for 30 days; • (2) Oil group: 0.6 U/50 μl of Bleomycin sulfate (dissolved in PBS) was administrated to each mouse by intratracheal injection, and then 100 μl of olive oil was orally administrated to each mouse every day for 30 days; • (3) Low-dose group: 0.6 U/50 μl of Bleomycin sulfate (dissolved in PBS) was administrated to each mouse by intratracheal injection, and then compound (1) (10 mg/kg-body weight, prepared with olive oil to provide a final volume of 100 μl) was orally administrated to each mouse every day for 30 days; and • (4) High-dose group: 0.6 U/50 μl of Bleomycin sulfate (dissolved in PBS) was administrated to each mouse by intratracheal injection, and then compound (1) (50 mg/kg-body weight, prepared with olive oil to provide a final volume of 100 μl) was orally administrated to each mouse every day for 30 days.
In this experiment, the pulmonary functions of the mice from each group of Example 5 were evaluated with Unrestrained Whole Body Plethysmography (WBP). The inspiratory and expiratory flow rates of mice were calculated by measuring changes in the air inside and outside of a specific chamber, and respiratory parameters can be obtained therefrom. The respiratory parameters comprise the peak inspiratory flow (PIF) (i.e., the maximal volume being inspired in a period of time), peak expiratory flow (PEF) (i.e., the maximal volume being expired in a period of time), inspiratory time (Ti) (i.e., the average time of inspiration in a period of time), expiratory time (Te) (i.e., the average time of expiration in a period of time), respiratory rate (RR) (i.e., the numbers of breath per minute), accumulated volume (AV) (i.e., the average volume of air being breathed per minute), tidal volume (TV) (i.e., the average volume of air being expired per time), relaxation time (RT) (i.e., the average time needed for raising the pressure of air hatch to 40% of the maximal value), etc.

[2] = tested on: Rat type II alveolar cell, L2 cell line; assay: Cell survival test (MTT analysis) under H2O2 oxidative stress; type: cell-based; conditions: 24 hours, control group = 100%
Protocol: The rat type II alveolar cell, L2 cell line (ATCC® CCL149™) were seeded into a 96-well plate at a density of 5×10^3 cells/well, 48 wells in total (separated into a control group and five experimental groups, 8 wells for each group). The cells were cultured until the next day, and then the mediums were removed. Each group was respectively treated under the following conditions to conduct follow-up experiments:
(1) Control group: cells were cultured in a F-12K medium (Kaighn's Modification of Ham's F-12 Medium, ATCC® 30-2004™) for 24 hours;
(2) Group 1: cells were cultured in a F-12K medium containing H2O2 (0.1 mM) for 24 hours;
(3) Group 2: cells were cultured in a F-12K medium containing H2O2 (0.1 mM) and compound (1) (5 μg/ml) for 24 hours;
(4) Group 3: cells were cultured in a F-12K medium containing H2O2 (0.1 mM) and N-acetylcysteine (NAC) (2 mM) for 24 hours;
(5) Group 4: cells were cultured in a F-12K medium containing H2O2 (0.2 mM) and compound (1) (5 μg/ml) for 24 hours; and
(6) Group 5: cells were cultured in a F-12K medium containing H2O2 (0.2 mM) and NAC (2 mM) for 24 hours.
The mediums were removed after culturing was complete, and then each group was respectively treated under the following conditions: F-12K mediums containing 10% of 3-(4,5-Dimethylthiazol-2-yl)-2,5-diphenyltetrazolium bromide (MTT) were added into each well, and cultured for 1 hour. Thereafter, the mediums were removed, and a suitable amount of dimethyl sulfoxide (DMSO) was added into the wells. An Enzyme-Linked ImmunoSorbent Assay reader (ELISA reader) was then used for detecting the absorbance of each group at a wavelength of 595 nm (OD595nm). The average value of each group was respectively calculated (n=8), and then the result of the control group served as the basis for calculating the relative survival rates of the other groups.

[3] = High-dose group, compound (1) 50 mg/kg orally daily 30 days
[4] = Low-dose group, compound (1) 10 mg/kg orally daily 30 days

CCCC=C1OC(=O)c2ccccc21 [compound (1)]
other respiratory parameters [1, 3]: closer to the control group | accumulated volume (AV) [1, 3]: significantly increased | expiratory time (Te) [1, 3]: significantly decreased | relaxation time (RT) [1, 3]: significantly decreased | other respiratory parameters [1, 4]: closer to the control group | accumulated volume (AV) [1, 4]: significantly increased | expiratory time (Te) [1, 4]: significantly decreased | relaxation time (RT) [1, 4]: significantly decreased | Relative survival rate ([2]; Group 2: H2O2 0.1 mM + compound (1) 5 μg/ml, H2O2 0.1 mM alone = 38.9%): 109.4% | Relative survival rate ([2]; Group 4: H2O2 0.2 mM + compound (1) 5 μg/ml): 80.6%
